Measurements as given in patent US11459546B2, “Method for producing somatic cell, somatic cell, and composition” (Kyoto Prefectural Public University Corporation, priority 2016, dated 2022).

Key:
human fibroblasts [1] = assay: Induction of brown adipocyte from human fibroblast, UCP1 immunostaining (Example A); format: cell-based; conditions: from comparison of combinations of Table 1, FIG. 1
Experimental: (§1) As materials, human fibroblasts were purchased from DS Pharma Biomedical Co., Ltd. The fibroblasts were derived from a skin of a human. The human fibroblasts were seeded on 35 mm dishes at a rate of 8×10^4 cells per a dish, and cultured in DMEM high glucose medium (Wako Pure Chemical Industries, Ltd.) to which 10% fetal bovine serum (FBS), 100 U/ml penicillin and 100 μg/ml streptomycin under a condition at 37° C. and 5% CO2 were added for 2 days. Note that the DMEM refers to a Dulbecco's Modified Eagle Medium. […] Subsequently, the cells were cultured under the condition at 37° C. and 5% CO2 while exchanging the medium to the medium having the same composition every 3 days. The details of the compounds listed in Table 1 are as aforementioned in the present specification. As a result of culturing the human fibroblasts in accordance with the above (2), adipocyte-like cells appeared 6 days after the onset of culturing. Twenty-one days after the onset of culturing, the cells were immobilized with 2% paraformaldehyde, and then immunostained. […] The lower pictures show phase-contrast microscopic images in the same visual fields as of the upper pictures.

human fibroblasts [2] = assay: Induction of cardiomyocyte from human fibroblast, cTnT immunostaining (Example F); format: cell-based; conditions: from comparison of combinations of Table 9, FIG. 17
Experimental: as §1, with “medium (Gibco)” for “medium (Wako Pure Chemical Industries, Ltd.)”, “Table 9” for “Table 1”, “(2), shrinking or beating single” for “(2), adipocyte-like”, “cells or small cell masses were recognized 8” for “cells appeared 6”, “culturing. Twenty-one or more days after the onset of culturing, a large number of shrinking or beating cardiomyocyte-like masses were observed.” for “culturing.”, “immunostained. For staining, an anti-cTnT antibody (ab10214, Abcam PLC; diluted 200-fold) was used.” for “immunostained.”

human fibroblasts [3] = assay: Induction of chondrocyte from human fibroblast, Alcian Blue staining (Example D); format: cell-based; conditions: from comparison of combinations of Table 7, FIG. 15
Experimental: As materials, human fibroblasts were purchased from DS Pharma Biomedical Co., Ltd. The fibroblasts were derived from a skin of a human.
The human fibroblasts were seeded on 35 mm dishes at a rate of 5×10^4 cells per a dish, and cultured in DMEM medium (Gibco) to which 10% fetal bovine serum (FBS), 100 U/ml penicillin and 100 μg/ml streptomycin under a condition at 37° C. and 5% CO2 were added to become confluent. Note that the DMEM refers to a Dulbecco's Modified Eagle Medium.
The medium in the dish containing the human fibroblasts was exchanged to a DMEM (Thermo Fisher Scientific, Inc.) containing Insulin-Transferrin-Selenium (Thermo Fisher Scientific, Inc., final concentration: 1%), ascorbic acid-2-phosphate (Wako Pure Chemical Industries, Ltd., final concentration: 50 μg/ml), dexamethasone (Wako Pure Chemical Industries, Ltd., final concentration: 0.1 μM), TGF-β3 (PeproTech, Inc., final concentration: 10 ng/ml), L-proline (Nacalai Tesque, final concentration: 40 μg/ml), Antibiotic-Antimycotic (Thermo Fisher Scientific, Inc., final concentration: 1×), and a low molecular weight compound added according to Table 1. Subsequently, the cells were cultured under the condition at 37° C. and 5% CO2 while exchanging the medium to the medium having the same composition every 3 days. The details of the compounds listed in Table 7 are as aforementioned in the present specification.
As a result of culturing human fibroblasts according to Example (2), chondrocyte-like cells appeared 7 days after the onset of culturing. Twenty-one days after the onset of culturing, the cells were subjected to Alcian Blue staining according to a conventional method, to evaluate the presence or absence of acid polysaccharides which are a cartilage matrix. In the figure, the upper pictures show the results of Alcian Blue staining, and the lower pictures present phase-contrast microscopic images in the same visual fields as of the upper pictures.

human fibroblasts [4] = assay: Induction of neural cell from human fibroblast, βIII-tubulin immunostaining (Example E); format: cell-based; conditions: from comparison of combinations of Table 8, FIG. 16
Experimental: as §1, with “Table 8” for “Table 1”, “(2), nerve-like projection structures were recognized 5” for “(2), adipocyte-like cells appeared 6”, “culturing. Fourteen” for “culturing. Twenty-one”, “immunostained. For staining, an anti-βIII-tubulin antibody (MMS-435P, Covance; diluted 1000-fold) was used.” for “immunostained.”

human fibroblasts [5] = assay: Induction of osteoblast from human fibroblast, von Kossa staining (Example C); format: cell-based; conditions: from comparison of combinations of Table 6, FIG. 14
Experimental: As materials, human fibroblasts were purchased from DS Pharma Biomedical Co., Ltd. The fibroblasts were derived from a skin of a human. The human fibroblasts were seeded on 35 mm dishes at a rate of 5×10^4 cells per a dish, and cultured in DMEM medium (Gibco) to which 10% fetal bovine serum (FBS), 100 U/ml penicillin and 100 μg/ml streptomycin under a condition at 37° C. and 5% CO2 were added to become confluent. Note that the DMEM refers to a Dulbecco's Modified Eagle Medium. The medium in the dish containing the human fibroblasts was exchanged to a RPMI1640 with L-Glutamine and Phenol Red (Wako Pure Chemical Industries, Ltd.) containing an osteoblast-inducer reagent (Takara Bio Inc.), and a low molecular weight compound added according to Table 1. Subsequently, the cells were cultured under the condition at 37° C. and 5% CO2 while exchanging the medium to the medium having the same composition every 3 days. The details of the compounds listed in Table 6 are as aforementioned in the present specification. As a result of culturing human fibroblasts according to the above (2), osteoblast-like cells appeared 7 days after the onset of culturing. Twenty-one days after the onset of culturing, the cells were subjected to von Kossa staining according to a conventional method, to evaluate the presence or absence of calcium deposition. In the figure, the upper pictures show the results of von Kossa staining, and the lower pictures present phase-contrast microscopic images in the same visual fields as of the upper pictures.

[6] = tested on: β adrenergic receptor signaling pathway in compound-induced brown adipocytes; assay: Isoproterenol or forskolin treatment of compound-induced brown adipocytes, mRNA by QRT-PCR; format: cell-based, human; conditions: for expression of Cited1 after treatment / expression of Ckmt1 after treatment: 3 or 6 hours, FIGS. 12 C and D
Experimental: For the purpose of quantifying gene expression, the whole RNA was extracted from the fibroblasts treated with each compound, using the RNeasy Mini kit (QIAGEN N.V). As a control, a fibroblast was cultured in parallel, in the adipocyte medium. The cells were treated with 0.1 μM, 1 μM and 10 μM isoproterenol or forskolin for 3 hours or 6 hours, and then the whole RNA was extracted from the brown adipocytes induced with the compound and the control cell. The whole RNA was reversely transferred with ReverTraAce® PCR RT Master Mix with gDNA Remover (TOYOBO CO., LTD.), and then subjected to a real-time PCR analysis using Power SYBR Green PCR Master Mix (Thermo Fisher Scientific, Inc.). For one standard, 3 reactions were carried out under the following condition: 40 cycles of reactions at 95° C. for 10 minutes, at 95° C. for 15 seconds, and at 60° C. for 60 seconds. All results were standardized by the amount of the Tbp mRNA.
Thermogenesis through the Ucp1 is regulated through the sympathetic nervous system and the […] receptor signaling pathway in the brown adipocytes. For the purpose of evaluating the thermogenetic ability in the […] induced with the compounds, the brown adipocytes were treated with isoproterenols (β adrenergic receptor agonist) at 3 different concentrations for 3 hours or 6 hours, and then the Ucp1 mRNA was quantified (FIG. 12 A).

| Structure (SMILES) | role of the component for differentiation into cardiomyocytes (human fibroblasts [2]) | role of the component for differentiation of the chondrocytes (human fibroblasts [3]) | role of the component for differentiation of the osteoblasts (human fibroblasts [5]) | also measured |
| --- | --- | --- | --- | --- |
| c1cc(-c2cnn3cc(-c4ccc(OCCN5CCCCC5)cc4)cnc23)ccn1 [dorsomorphin, Dorsomorphin] | important | not contained |  | role of the component for differentiation into brown adipocytes (human fibroblasts [1]): preferable; role of the component for differentiation into neural cells (human fibroblasts [4]): important |
| Cc1cccc(-c2n[nH]cc2-c2ccc3ncccc3n2)n1 [Repsox] | important |  |  |  |
| c1ccc2c(-c3cnn4cc(-c5ccc(N6CCNCC6)cc5)cnc34)ccnc2c1 [LDN193189] |  | important | important |  |
| NC(=O)c1ccc(-c2nc(-c3ccc4c(c3)OCO4)c(-c3ccccn3)[nH]2)cc1 [SB431542] |  | important | important | role of the component for differentiation into brown adipocytes (human fibroblasts [1]): preferable |
| CC(C)NCC(O)c1ccc(O)c(O)c1 (stereo not drawn) [isoproterenol, Isoproterenol] |  |  |  | Ucp1 mRNA, 3-hour treatment ([6]; 0.1, 1 or 10 μM, versus untreated cells, FIG. 12): slightly increased; expression of Cited1 after treatment [6]: no significant change; expression of Ckmt1 after treatment [6]: no significant change |
| O=C(NOC[C@H](O)CO)c1ccc(F)c(F)c1Nc1ccc(I)cc1F [PD0325901] | important | not contained | should not be added |  |
| Cc1c[nH]c(-c2cnc(NCCNc3ccc(C#N)cn3)nc2-c2ccc(Cl)cc2Cl)n1 [CHIR99021] |  | important | important |  |
| C=C[C@@]1(C)CC(=O)[C@]2(O)[C@@]3(C)[C@@H](O)CCC(C)(C)[C@@H]3[C@H](O)[C@H](OC(C)=O)[C@@]2(C)O1 [forskolin, Forskolin] | important | important | important | Ucp1 expression, cells treated for 6 hours versus 3 hours ([6]; 0.1, 1 or 10 μM, FIG. 12 B): more enhanced; expression of Cited1 after treatment [6]: no significant change; expression of Ckmt1 after treatment [6]: no significant change |
